According to patent US20180318199A1, “Pharmaceutical Composition Having Anti-Aging Properties against High-Glucose” (TAIWAN LEADER BIOTECH CORP., priority 2017, published 2018):

How the values were obtained:
[1] = test system: HNDFs; assay: Cell-cycle distribution by flow cytometry (PI) in HNDFs; type: cell-based, human; conditions: ANM 10 μM or NAC 100 μM + HG 30 mM, 72 h; HG 71.2%, NG 46.5%
Procedure: Senescence is well-defined as an irreversible arrest in the G0/G1 phase of the cell-cycle, triggered by various physiological and chemical stimuli including HG. It is thus paradoxical that HG-induced senescence is associated with cell-cycle arrest. Please refer to FIG. 3A˜FIG. 3C, which are views showing HG-induced growth arrest blocked by ANM in HNDFs. As shown in the figures, to further explore this paradoxical relationship, HNDFs are treated with HG and ANM or N-acetylcysteine (NAC). In FIG. 3A, HNDFs are incubated with ANM (10 μM) or NAC (100 μM) in the presence of HG (30 mM) for 72 h. Cell-cycle distribution is measured by flow cytometer using PI. Percentage of cell population in each transition phase is shown in a histogram view.
HNDFs at a density of 5×10^5 cells in 10 cm dishes are treated with ANM or NAC in the presence or absence of HG for 72 h. Cells are collected, washed with PBS and fixed in 95% cold-ethanol, and kept at −20° C. overnight. The cell pellet is then washed again with PBS and centrifuged at 1500×g for 5 min. The pellet is re-suspended in 1 mL PI/Triton X-100 (20 μg/mL PI, 0.1% Triton X-100 and 0.2 mg/mL RNAse) and incubated on ice for 30 min. The total cellular DNA content is analyzed with a flow cytometer (Beckman Coulter FC500). Data are acquired and analyzed using CXP software (Beckman Coulter).

[2] = test system: SMP30; assay: SMP30 immunofluorescence in HNDFs; type: cell-based, human; conditions: ANM 10 μM or NAC 100 μM + HG 30 mM, 72 h
Procedure: In FIG. 4C, SMP30 expression provided by ANM is examined. HNDFs are incubated with ANM (10 μM) or NAC (100 μM) in the presence or absence of HG (30 mM) for 72 h. The protein expression of SMP30 is measured by immunofluorescence using SMP30 specific primary antibody and fluorescein isothiocyanate-conjugated secondary antibody (green). The cellular localization of SMP30 is photographed using a fluorescence microscope. 4′,6-diamidino-2-phenylindole (DAPI) (1 μM) is used to stain the nucleus.
HNDFs at a density of 1×10^4 cells/well are cultured in an eight-well glass Nunc Lab-Tek chamber (ThermoFisher Scientific, Waltham, Mass.). Cells are treated with ANM or NAC in the presence or absence of HG for 2-72 h. After incubation, culture medium is removed and cells are fixed in 4% paraformaldehyde for 15 min, permeabilized with 0.1% Triton X-100 for 10 min, washed and blocked with 10% FBS in PBS, and then incubated overnight with the corresponding primary antibodies in 1.5% FBS. The cells are then incubated with the fluorescein isothiocyanate (FITC)-conjugated secondary antibody (Alexa fluor 488, ThermoFisher Scientific) for another 1 h in 6% bovine serum albumin (BSA). Next, the cells are stained with 1 μg/mL 4′,6-diamidino-2-phenylindole (DAPI, Cell Signaling Technology) for 5 min, washed with PBS, and visualized using a fluorescence microscope (Motic Electric Group) at 40× magnification.

[3] = test system: HNDFs; assay: Intracellular ROS by flow cytometry (DCFH-DA) in HNDFs; type: cell-based, human; conditions: 24 h; for intracellular ROS generation: ANM 10 μM or NAC 100 μM + HG 30 mM, HG alone 426.2%; for ROS generation, compound alone: ANM 10 μM or NAC 100 μM without HG
Procedure: Next, please refer to FIG. 4A˜FIG. 4H, which are views showing HG-induced senescence inhibited by ANM in HNDFs. As shown in the figures, it is examined whether ANM inhibits HG-induced ROS generation. In FIG. 4A, HNDFs are incubated with ANM (10 μM) or NAC (100 μM) either in the presence or absence of HG (30 mM) for 24 h. The intracellular ROS level is determined by flow cytometry using DCH-DA flurogenic probe. […] As is shown, HNDFs are co-incubated with HG and ANM or NAC for 24 h, and intracellular ROS levels are measured by flow cytometry.
Moreover, in FIG. 6B, HNDFs are transfected with specific siRNA against Nrf2 or control siRNA. […] Intracellular ROS is measured by DCFH-DA assay.
Intracellular ROS accumulation is determined using the dye DCFH2-DA following a procedure described earlier. Briefly, HNDFs (1×10^5 cells/well) are seeded in 6-well plates and incubated with HG in the presence or absence of test samples for 24 h. At the end of the incubation, the culture supernatant is removed and cells are washed twice with PBS. DCFH2-DA […] is mixed with 500 μL MEM and added to the culture plate. After incubation for 30 minutes, cells are collected by trypsin and the fluorescence shift is quantified using a flow cytometer (Beckman Coulter). Data are acquired and analyzed using CXP software (Beckman Coulter).

[4] = Cell-free DPPH free-radical scavenging assay; type: biochemical; conditions: cell-free system
Procedure: Therefore, next to determine whether ANM acts directly as a free-radical scavenger, a cell-free DPPH free-radical scavenging assay is performed. In FIG. 5A, to determine the free-radical scavenging effect of ANM, cell-free DPPH assay is performed.

[5] = test system: pRb, cyclin D1, cyclin E, cyclin B1, CDK4, CDK6, CDK2 and Cdc2; assay: Western blot of cell-cycle regulatory proteins in HNDFs; type: cell-based, human; conditions: 72 h; for cyclin D1, CDK4, CDK6, cyclin E and CDK2 protein levels under HG: ANM 10 μM or NAC 100 μM + HG 30 mM
Procedure: To further clarify this effect, G1-S transition regulatory proteins are determined by immunoblotting. In FIG. 3B, western blot analysis is performed to determine the expression levels of cell-cycle regulatory proteins including, pRb, cyclin D1, cyclin E, cyclin B1, CDK4, CDK6, CDK2 and Cdc2; and GAPDH is served as an internal control.
(§1) Cells are lysed by either RIPA lysis buffer or nuclear and cytoplasmic extraction reagents (Thermo Fisher Scientific). Protein concentrations are determined by Bio-Rad protein assay reagent (Bio-Rad Laboratories, Hercules, Calif.). Equal amounts of protein samples (60 μg) are separated by 7-12% SDS-PAGE and the separated proteins are transferred onto polyvinylidene […] (PVDC) membrane overnight. The transferred protein membranes are blocked with 5% non-fat dried milk for 30 min, followed by incubation with specific primary antibodies overnight, and either horseradish peroxidase-conjugated goat anti-rabbit or anti-mouse antibodies for 2 h. The blots are detected using VL Chemi-Smart 3000 (Viogene Biotek, Sunnyvale, Calif.) with the enhanced chemiluminescence (ECL) western blotting reagent (Millipore, Billerica, Mass.).

[6] = test system: HO-1 and NQO-1; assay: Western blot of HO-1 and NQO-1 in HUVECs; type: cell-based, human; conditions: for NQO-1 expression in HUVECs: western blot, HG
Procedure: The intracellular ROS level is quantified by utilizing DCFH-DA assay. […] However, treatment of HUVECs with ANM resulted reduced ROS levels (6.1-fold), compared with HUVECs in HG that are not treated with ANM. In addition, in FIG. 9G, western blot analysis is performed to determine the protein expression levels of HO-1 and NQO-1.
as §1

Row | Compound | cell population in the G0/G1 phase [1] | HG-induced reduction in SMP30 (immunofluorescence) [2] | HG-induced ROS generation, scrambled siRNA cells ([3]; ANM 10 μM + HG) | ROS generation, siNrf2 transfected cells ([3]; ANM 10 μM + HG) | intracellular ROS generation [3] [%] | ROS generation, compound alone [3] | free-radical scavenging effect (DPPH) [4] | cyclin B1 and Cdc2 levels ([5]; ANM 10 μM + HG 30 mM) | protein Rb phosphorylation under HG ([5]; ANM 10 μM + HG 30 mM) | cyclin D1, CDK4, CDK6, cyclin E and CDK2 protein levels under HG [5] | HO-1 expression in HUVECs in HG ([6]; ANM 10 μM or RES 5 μM + HG) | NQO-1 expression in HUVECs [6]
1 | C=C(CCC(C)C1CCC2C3=C(C(=O)C(O)C21C)C1(C)CCC(O)C(C)C1CC3)C(C)C(=O)O (stereo not shown) [ANM, antcin M] | 49.5% | significantly prevented | significantly inhibits | increased ROS generation | 200.8 | does not significantly increase | fails to scavenge free radicals | unaffected | significantly inhibits | upregulated | significantly increase | unaffected
2 | CC(=O)N[C@@H](CS)C(=O)O [NAC, N-acetylcysteine, reference compound] | partially blocks | partially prevented | – | – | 176.58 | does not significantly increase | potent free-radical scavenging effect | – | – | partially rescues | – | unaffected
